Data taken from PubChem BioAssay (NCI).
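Briefly, cells in 96-well plates were exposed to five compound concentrations for 48 h, and endpoints were estimated by linear interpolation. The concentration for 50% growth inhibition is given as GI50. TGI: concentration producing complete growth inhibition.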

Legend:
Experiment in all cases: NCI tumour cell line growth inhibition, 48 h
[1] = test system: SK-MEL-2 melanoma
[2] = test system: SF-268 CNS
[3] = test system: NCI-H226 lung
[4] = test system: HCT-116 colon
[5] = test system: SF-295 CNS
[6] = test system: K-562 leukemia
[7] = test system: MDA-MB-435
[8] = test system: CAKI-1 renal
[9] = test system: COLO 205 colon
[10] = test system: A549 NSCLC
[11] = test system: HL-60(TB) leukemia
[12] = test system: U251 CNS
[13] = test system: BT-549 breast
[14] = test system: UACC-257 melanoma
[15] = test system: ACHN renal
[16] = test system: NCI-H522 lung
[17] = test system: SF-539 CNS
[18] = test system: OVCAR-4 ovarian
[19] = test system: EKVX NSCLC
[20] = test system: HCC-2998 colon
[21] = test system: MDA-MB-231 breast
[22] = test system: IGROV1 ovarian
[23] = test system: 786-0 renal
[24] = test system: RXF 393 renal
[25] = test system: A498 renal
[26] = test system: UO-31 renal
[27] = test system: TK-10 renal
[28] = test system: MALME-3M melanoma
[29] = test system: OVCAR-5 ovarian
[30] = test system: OVCAR-8 ovarian
[31] = test system: HCT-15 colon
[32] = test system: SNB-19 CNS
[33] = test system: UACC-62 melanoma
[34] = test system: SN12C renal
[35] = test system: SK-MEL-28 melanoma
[36] = test system: KM12 colon
[37] = test system: T-47D breast
[38] = test system: HT29 colon
[39] = test system: SK-OV-3 ovarian
[40] = test system: LOX IMVI melanoma
[41] = test system: PC-3 prostate
[42] = test system: MOLT-4 leukemia
[43] = test system: HS 578T breast
[44] = test system: DU-145 prostate
[45] = test system: OVCAR-3 ovarian
[46] = test system: NCI/ADR-RES ovarian
[47] = test system: CCRF-CEM leukemia
[48] = test system: NCI-H23 lung
[49] = test system: SK-MEL-5 melanoma
[50] = test system: NCI-H460 lung
[51] = test system: MCF7 breast
[52] = test system: M14 melanoma
[53] = test system: HOP-92 NSCLC
[54] = test system: SW-620 colon
[55] = test system: SNB-75 CNS
[56] = test system: RPMI-8226 leukemia
[57] = test system: HOP-62 NSCLC

With `N#CC(NCCc1ccccc1)c1ccc(C(C#N)NCCc2ccccc2)cc1` (stereo unspecified) the TGI [1] was > 100 µM, the TGI [2] was > 100 µM and the TGI [3] was > 100 µM. For the same compound, the TGI [4] was > 100 µM, the TGI [5] was > 100 µM and the TGI [6] was 70.6 µM. For the same compound, the TGI [7] was > 100 µM, the TGI [8] was > 100 µM and the TGI [9] was > 100 µM. For the same compound, the TGI [10] was > 100 µM, the TGI [11] was 40.8 µM and the TGI [12] was > 100 µM. For the same compound, the TGI [13] was 56.1 µM, the TGI [14] was > 100 µM and the TGI [15] was > 100 µM. For the same compound, the TGI [16] was > 100 µM, the TGI [17] was > 100 µM and the TGI [18] was > 100 µM. The TGI [19] was > 100 µM, the TGI [20] was > 100 µM and the TGI [21] was > 100 µM. The TGI [22] was > 100 µM, the TGI [23] was > 100 µM and the TGI [24] was > 100 µM. For the same compound, the TGI [25] was > 100 µM, the TGI [26] was > 100 µM and the TGI [27] was > 100 µM. The TGI [28] was > 100 µM, the TGI [29] was > 100 µM and the TGI [30] was > 100 µM. For the same compound, the TGI [31] was > 100 µM, the TGI [32] was > 100 µM and the TGI [33] was > 100 µM. For the same compound, the TGI [34] was > 100 µM, the TGI [35] was > 100 µM and the TGI [36] was > 100 µM. The TGI [37] was > 100 µM, the TGI [38] was > 100 µM and the TGI [39] was > 100 µM. The TGI [40] was > 100 µM, the TGI [41] was > 100 µM and the TGI [42] was > 100 µM. For the same compound, the TGI [43] was > 100 µM, the TGI [44] was > 100 µM and the TGI [45] was > 100 µM. For the same compound, the TGI [46] was 57.5 µM, the TGI [47] was 65.7 µM and the TGI [48] was > 100 µM. The TGI [49] was > 100 µM, the TGI [50] was > 100 µM and the TGI [51] was > 100 µM. The TGI [52] was > 100 µM, the TGI [53] was > 100 µM and the TGI [54] was > 100 µM.

In the case of `O=C1NC(=NCc2c(Cl)cccc2Cl)S/C1=C\c1ccc2ncccc2c1`, the GI50 [55] is reported as 1.14 µM, the TGI [55] is reported as > 25 µM and the GI50 [1] is reported as 9.12 µM. For the same compound, the TGI [1] was 24.5 µM, the GI50 [2] was 6.71 µM and the TGI [2] was > 25 µM. For the same compound, the GI50 [3] was 6.61 µM, the TGI [3] was > 25 µM and the GI50 [4] was 6.15 µM. For the same compound, the TGI [4] was > 25 µM, the GI50 [5] was > 12.1 µM and the TGI [5] was > 25 µM. For the same compound, the GI50 [6] was 8.91 µM, the TGI [6] was > 25 µM and the GI50 [7] was 9.24 µM. For the same compound, the TGI [7] was > 25 µM, the GI50 [8] was 11 µM and the TGI [8] was > 25 µM. For the same compound, the GI50 [9] was 14.7 µM, the TGI [9] was > 25 µM and the GI50 [10] was 10.2 µM. The TGI [10] was > 25 µM, the GI50 [11] was 5.35 µM and the TGI [11] was > 25 µM. For the same compound, the GI50 [56] was 9.29 µM, the TGI [56] was > 25 µM and the GI50 [12] was 8.17 µM. The TGI [12] was > 25 µM, the GI50 [13] was 6.24 µM and the TGI [13] was > 25 µM. For the same compound, the GI50 [14] was > 13.7 µM, the TGI [14] was > 25 µM and the GI50 [15] was 8.11 µM. For the same compound, the TGI [15] was > 25 µM, the GI50 [16] was 3.99 µM and the TGI [16] was 8.77 µM. For the same compound, the GI50 [17] was 3.59 µM, the TGI [17] was 10.7 µM and the GI50 [18] was 6.53 µM. The TGI [18] was > 24 µM, the GI50 [20] was > 25 µM and the TGI [20] was > 25 µM. For the same compound, the GI50 [21] was 16.3 µM, the TGI [21] was > 25 µM and the GI50 [22] was 13.1 µM. For the same compound, the TGI [22] was > 25 µM, the GI50 [23] was 9.79 µM and the TGI [23] was > 25 µM. The GI50 [57] was 7.03 µM, the TGI [57] was > 19.9 µM and the GI50 [24] was 6.05 µM. For the same compound, the TGI [24] was > 24.2 µM, the GI50 [25] was 4.47 µM and the TGI [25] was > 25 µM. It also gave a GI50 [26] of 4.72 µM, a TGI [26] of 21.1 µM and a GI50 [27] of 3.14 µM. The TGI [27] was > 22.9 µM, the GI50 [28] was 10.6 µM and the TGI [28] was > 25 µM. For the same compound, the GI50 [29] was > 19.5 µM, the TGI [29] was > 25 µM and the GI50 [30] was 10.6 µM. The TGI [30] was > 25 µM, the GI50 [31] was 4.85 µM and the TGI [31] was > 25 µM. The GI50 [32] was 11.3 µM, the TGI [32] was > 25 µM and the GI50 [33] was 15.9 µM. The TGI [33] was > 25 µM, the GI50 [34] was 14.1 µM and the TGI [34] was > 25 µM. The GI50 [35] was > 22.9 µM, the TGI [35] was > 25 µM and the GI50 [36] was 16 µM. For the same compound, the TGI [36] was > 25 µM, the GI50 [37] was 9.64 µM and the TGI [37] was > 25 µM. The GI50 [38] was 24.9 µM, the TGI [38] was > 25 µM and the GI50 [39] was 7.53 µM. For the same compound, the TGI [39] was > 25 µM, the GI50 [40] was 13.7 µM and the TGI [40] was > 25 µM. The GI50 [41] was 13.4 µM, the TGI [41] was > 25 µM and the GI50 [42] was 12.9 µM. For the same compound, the TGI [42] was > 25 µM, the GI50 [43] was 8.78 µM and the TGI [43] was > 21.1 µM. For the same compound, the GI50 [44] was 6.3 µM, the TGI [44] was > 25 µM and the GI50 [45] was 8.22 µM. For the same compound, the TGI [45] was > 25 µM, the GI50 [46] was 12 µM and the TGI [46] was > 25 µM. The GI50 [47] was 9.19 µM, the TGI [47] was > 25 µM and the GI50 [48] was 11.6 µM. The TGI [48] was > 25 µM, the GI50 [49] was 13.9 µM and the TGI [49] was > 25 µM. The GI50 [50] was 8.31 µM, the TGI [50] was > 25 µM and the GI50 [51] was 16.1 µM. For the same compound, the TGI [51] was > 25 µM, the GI50 [52] was > 23.3 µM and the TGI [52] was > 25 µM. It also gave a GI50 [53] of 4.25 µM, a TGI [53] of 20.2 µM and a GI50 [54] of 10.6 µM. For the same compound, the TGI [54] was > 25 µM.
